Where two headings read alike, the source gives them in different places. Numbered stars: 1 amine (or outer) side, 2 acyl side, 3 side chain; on linkers, the order of the positions; unused ones are H or OH. Square brackets hold non-standard residues; d marks the D form. Side chains are listed from the residue outwards. Peptide text beside a SMILES is read from it. * marks the point of attachment. ξ: configuration not given here. C20 diacid = O=C(O)CCCCCCCCCCCCCCCCCCC(=O)*; γGlu = O=C(O)[C@H](CCC(=O)[*:2])N[*:1]; AEEA = NCCOCCOCC(=O)O; Aib = CC(C)(N)C(=O)O; ξP = O=C(O)C1CCCN1
Legend:
[1] = Pharmacokinetic study in cynomolgus monkeys after single subcutaneous or intravenous injection; assay type: in vivo
Description: The administration doses for 4 groups, i.e., intravenous injection group, low-dose subcutaneous injection group, medium-dose subcutaneous group and high-dose subcutaneous injection group, were 0.1, 0.03, 0.1, and 0.3 mg/kg, respectively, all by single administration.

[2] = Influencing factor test of the bulk drug; assay type: physicochemical; conditions: high temperature or illumination
[3] = acids, alkalis, oxidation or high temperature

CC[C@H](C)[C@H](NC(=O)[C@H](CCCCN)NC(=O)[C@H](CCC(=O)O)NC(=O)[C@H](CC(C)C)NC(=O)[C@H](Cc1ccc(O)cc1)NC(=O)[C@@H](NC(=O)[C@H](CO)NC(=O)[C@H](Cc1ccc(O)cc1)NC(=O)[C@H](CC(=O)O)NC(=O)[C@H](CO)NC(=O)[C@@H](NC(=O)[C@H](Cc1ccccc1)NC(=O)[C@@H](NC(=O)CNC(=O)[C@H](CCC(=O)O)NC(=O)C(C)(C)NC(=O)[C@@H](N)Cc1ccc(O)cc1)[C@@H](C)O)[C@@H](C)O)[C@@H](C)CC)C(=O)N[C@@H](C)C(=O)N[C@@H](C)C(=O)N[C@@H](CCC(N)=O)C(=O)N[C@@H](CCC(=O)O)C(=O)N[C@@H](Cc1ccccc1)C(=O)N[C@H](C(=O)N[C@@H](CC(N)=O)C(=O)N[C@@H](Cc1c[nH]c2ccccc12)C(=O)N[C@@H](CC(C)C)C(=O)N[C@@H](CC(C)C)C(=O)N[C@@H](C)C(=O)NCC(=O)NCC(=O)N1CCCC1C(=O)N[C@@H](CO)C(=O)N[C@@H](CO)C(=O)NCC(=O)N[C@@H](C)C(=O)N1CCC[C@H]1C(=O)N1CCCC1C(=O)N1CCC[C@H]1C(=O)N[C@@H](CO)C(=O)N[C@@H](CCCCNC(=O)COCCOCCNC(=O)COCCOCCNC(=O)CC[C@H](NC(=O)CCCCCCCCCCCCCCCCCCC(=O)O)C(=O)O)C(N)=O)C(C)C (some centres unmarked) [Active ingredient] (H-Y[Aib]EGTFTSDYSIYLEKIAAQEFVNWLLAGG[ξP]SSGAP[ξP]PSK([AEEA-AEEA-γGlu-C20 diacid])-NH2)
exposure (AUClast) in animals of different sexes [1]: no statistical difference
Vd ([1]; cynomolgus monkey, in vivo, intravenous, 0.1 mg/kg, single, read-out: apparent volume of distribution Vd): 0.066 to 0.0681 L/kg
clearance ([1]; cynomolgus monkey, in vivo, intravenous, 0.1 mg/kg, single, read-out: clearance CL): 21.4 to 22.3 mL/day/kg
half-life ([1]; cynomolgus monkey, in vivo, intravenous, 0.1 mg/kg, single, read-out: elimination half-life t1/2): 50.7 to 51.5 h
half-life ([1]; cynomolgus monkey, in vivo, sc, single subcutaneous injection, read-out: elimination half-life T1/2): 48.9 to 65.4 h
Tmax ([1]; cynomolgus monkey, in vivo, sc, single subcutaneous injection, read-out: time to peak drug concentration Tmax): 13.3 to 18 h
polymer in influencing factor test [2]: polymer growth
degradation in stressing test [3]: significant degradations

— patent US20250170218A1, “STABLE PHARMACEUTICAL COMPOSITION OF RECEPTOR AGONIST, AND PREPARATION METHOD AND APPLICATION THEREOF” (JIANGSU HANSOH PHARMACEUTICAL GROUP CO., LTD., priority 2022, published 2025)
